Patent US20250304582A1, “Bicyclic Ureas As Kinase Inhibitors” (Incyte Corporation, priority 2024, published 2025)

How the values were obtained:
[1] = molecular target: T1, catalytic domain (JH1, amino acids 826-1132) of human JAK2 (Homo sapiens, UniProt O60674); assay: JAK2 LanthaScreen JH1 Binding Assay; details: 50 nM fluorescent JAK2-JH1 tracer, 2 hours at 25° C.; read-out: JH1 BIND (EX. A)
T1 construct: catalytic domain (JH1, amino acids 826-1132) of human JAK2; FLAG (N); purchased Carna Biosciences 08-445-20N; host or cells: baculovirus expression system
Description: Example A. JAK2 LanthaScreen JH1 Binding Assay
JAK2 JH1 binding assay utilizes catalytic domain (JH1, amino acids 826-1132) of human JAK2 expressed as N-terminal FLAG-tagged, biotinylated protein in a baculovirus expression system (Carna Biosciences, Product #08-445-20N). The assay was conducted in black 384-well polystyrene plates in a final reaction volume of 20 μL. JAK2 JH1 (1.5 nM) was incubated with compounds (100 nL serially diluted in DMSO) in the presence of 50 nM fluorescent JAK2-JH1 tracer and 0.5 nM Streptavidin-Tb cryptate (Cisbio Part #610SATLB) in assay buffer (50 mM Tris, pH=7.5, 10 mM MgCl2, 0.01% Brij-35, 0.1% BSA, 1 mM EGTA, 5% Glycerol and 5 mM DTT). Non-specific binding was accessed in the presence of 2 mM ATP. After incubation for 2 hours at 25° C., LanthaScreen signals were read on a PHERAstar FS plate reader (BMG LABTECH). Data was analyzed with IDBS Xlfit and GraphPad Prism 5.0 software using a four parameter dose response curve to determine IC50 for each compound.

[2] = molecular target: T2, pseudo-kinase domain (JH2, amino-acids 536-812) of human Wild Type JAK2 (Homo sapiens, UniProt O60674, F794H/W659A/W777A); assay: JAK2 LanthaScreen JH2-WT Binding Assay; details: 50 nM Fluorescent JAK2-JH2 Tracer, 1 hour at 25° C.; read-out: JH2 BIND WT (EX. B)
T2 construct: JH2, amino-acids 536-812 with 3 surface mutations W659A, W777A, F794H; His (C); purchased BPS Bioscience 79463; host or cells: baculovirus expression system
Description: Example B. JAK2 LanthaScreen JH2-WT Binding Assay
(§1) JAK2 JH2-WT binding assay utilizes pseudo-kinase domain (JH2, amino-acids 536-812 with 3 surface mutations W659A, W777A, F794H) of human Wild Type JAK2 expressed as C-terminal His-Avi-tagged, biotinylated protein in a baculovirus expression system (BPS Bioscience, Catalog #79463). The assay was conducted in black 384-well polystyrene plates in a final reaction volume of 20 μL. JAK2 JH2-WT (0.145 nM) was incubated with compounds (100 nL serially diluted in DMSO) in the presence of 50 nM Fluorescent JAK2-JH2 Tracer (MedChem Express Catalog #HY-102055) and 0.25 nM Streptavidin-Tb cryptate (Cisbio Part #610SATLB) in assay buffer (50 mM Tris, pH=7.5, 10 mM MgCl2, 0.01% Brij-35, 0.1% BSA, 1 mM EGTA, 5% Glycerol and 5 mM DTT). Non-specific binding was accessed in the presence of 2 mM ATP. After incubation for 1 hour at 25° C., LanthaScreen signals were read on a PHERAstar FS plate reader (BMG LABTECH). Data was analyzed with IDBS Xlfit and GraphPad Prism 5.0 software using a four parameter dose response curve to determine IC50 for each compound.

[3] = molecular target: T3, pseudo-kinase domain (JH2, amino-acids 536-812) of human V617F mutant JAK2 (Homo sapiens, UniProt O60674, F794H/V617F/W659A/W777A); assay: JAK2 LanthaScreen JH2-V617F Binding Assay; details: 50 nM Fluorescent JAK2-JH2 Tracer, 1 hour at 25° C.; read-out: JH2 BIND V617F (Ex. C)
T3 construct: JH2, amino-acids 536-812 with 3 surface mutations W659A, W777A, F794H; His (C); purchased BPS Bioscience 79498; host or cells: baculovirus expression system
Description: Example C. JAK2 LanthaScreen JH2-V617F Binding Assay
as §1, with “JH2-V617F” for “JH2-WT”, “V617F mutant” for “Wild Type”, “#79498).” for “#79463).”, “JH2-V617F (0.26” for “JH2-WT (0.145”

[4] = molecular target: T4, catalytic domain (JH1, amino acids 808-1132) of human JAK2 (Homo sapiens, UniProt O60674); assay: JAK2 HTRF Enzyme Activity Assay; assay type: biochemical; details: ATP (30 μM or 1 mM; not stated which for the table), 60 minutes at 25° C.; read-out: JAK2 HTRF (Ex. D)
T4 construct: catalytic domain (JH1, amino acids 808-1132) of human JAK2; His (N); purchased BPS Bioscience 40450; host or cells: baculovirus expression system
Description: Example D. JAK2 HTRF Enzyme Activity Assay
JAK2 enzyme activity assays utilize catalytic domain (JH1, amino acids 808-1132) of human JAK2 expressed as N-terminal His-tagged protein in a baculovirus expression system (BPS Bioscience, Catalog #40450). The assays was conducted in black 384-well polystyrene plates in a final reaction volume of 20 μL. JAK2 (0.015 nM) was incubated with compounds (100 nL serially diluted in DMSO) in the presence of ATP (30 μM or 1 mM) and 500 nM Biotin-labeled EQEDEPEGDYFEWLE (SEQ ID NO.: 1) peptide (BioSource International, custom synthesis) in assay buffer (50 mM Tris, pH=7.5, 10 mM MgCl2, 0.01% Brij-35, 0.1% BSA, 1 mM EGTA, 5% Glycerol and 5 mM DTT) for 60 minutes at 25° C. The reactions were stopped by the addition of 10 μL of detection buffer (50 mM Tris, pH 7.8, 0.5 mg/mL BSA, 150 mM NaCl), supplemented with EDTA, LANCE Eu-W1024 anti-phosphotyrosine (PY20), (PerkinElmer, Catalog #AD0067) and Streptavidin SureLight APC (PerkinElmer Catalog #CR130-100), for a final concentration of 15 mM, 1.5 nM and 75 nM, respectively. HTRF signals were read after 30 minutes incubation at room temperature on a PHERAstar FS plate reader (BMG LABTECH). Data was analyzed with TDBS Xlfit and GraphPad Prism 5.0 software using a four parameter dose response curve to determine IC50 for each compound.

T3 sequence (O60674 536-812 V617F/W659A/W777A/F794H): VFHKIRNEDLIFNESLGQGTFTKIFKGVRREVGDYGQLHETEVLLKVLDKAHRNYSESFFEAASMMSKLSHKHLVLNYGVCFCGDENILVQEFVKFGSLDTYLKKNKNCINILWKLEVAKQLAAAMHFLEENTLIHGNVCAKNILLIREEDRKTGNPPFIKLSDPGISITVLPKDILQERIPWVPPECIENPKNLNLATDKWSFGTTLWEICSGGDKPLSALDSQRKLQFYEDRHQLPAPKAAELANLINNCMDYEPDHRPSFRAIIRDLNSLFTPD
T2 sequence (O60674 536-812 W659A/W777A/F794H): as the sequence (O60674 536-812 V617F/W659A/W777A/F794H) above, with F82V counted along it
T4 sequence (O60674 808-1132): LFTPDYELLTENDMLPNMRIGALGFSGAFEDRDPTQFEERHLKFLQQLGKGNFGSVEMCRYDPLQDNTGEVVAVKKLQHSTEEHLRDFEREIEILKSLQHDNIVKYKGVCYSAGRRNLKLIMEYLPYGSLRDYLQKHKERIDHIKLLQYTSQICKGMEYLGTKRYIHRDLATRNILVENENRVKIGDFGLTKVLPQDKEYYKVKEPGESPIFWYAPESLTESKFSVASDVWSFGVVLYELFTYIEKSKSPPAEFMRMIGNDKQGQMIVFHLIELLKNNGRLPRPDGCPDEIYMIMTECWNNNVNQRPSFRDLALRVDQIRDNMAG
T1 sequence (O60674 826-1132): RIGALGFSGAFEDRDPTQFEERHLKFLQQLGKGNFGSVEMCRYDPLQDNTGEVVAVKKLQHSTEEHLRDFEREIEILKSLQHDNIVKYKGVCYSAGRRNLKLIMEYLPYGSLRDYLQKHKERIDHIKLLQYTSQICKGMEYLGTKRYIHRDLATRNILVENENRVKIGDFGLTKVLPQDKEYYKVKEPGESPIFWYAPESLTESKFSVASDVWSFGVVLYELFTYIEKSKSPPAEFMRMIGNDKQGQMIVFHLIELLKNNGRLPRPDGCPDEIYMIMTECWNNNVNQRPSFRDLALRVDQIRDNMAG

| Structure (SMILES) | IC50 [1] | IC50 [2] | IC50 [3] | IC50 [4] |
| --- | --- | --- | --- | --- |
| [2H]C([2H])([2H])n1c(=O)n([C@@H]2CC[C@@H](NC(=O)OC)C2)c2cc(Nc3cc(C(C)(O)C(F)(F)F)c4cccc(C(F)(F)F)c4n3)ncc21 (stereo partly drawn) [Example 3, Methyl ((1R,3R)-3-(3-(methyl-d3)-2-oxo-6-((4-(1,1,1-trifluoro-2-hydroxypropan-2-yl)-8-(trifluoromethyl)quinolin-2-yl)amino)-2,3-dihydro-1H-imidazo[4,5-c]pyridin-1-yl)cyclopentyl)carbamate] | > 1000 nM | ≤ 10 nM | ≤ 10 nM | > 1000 nM |
| [2H]C([2H])([2H])n1c(=O)n([C@@H]2CC[C@@H](NC(=O)OC)C2)c2cc(Nc3cc(C)c4cccc(C(F)(F)F)c4n3)ncc21 [Example 4, Methyl ((1R,3R)-3-(3-(methyl-d3)-6-((4-methyl-8-(trifluoromethyl)quinolin-2-yl)amino)-2-oxo-2,3-dihydro-1H-imidazo[4,5-c]pyridin-1-yl)cyclopentyl)carbamate] | > 1000 nM | ≤ 10 nM | ≤ 10 nM | > 1000 nM |
| [2H]C([2H])([2H])n1c(=O)n([C@@H]2CC[C@@H](NC(=O)OC)C2)c2cc(Nc3cc([S+](C)[O-])c4cccc(C(F)(F)F)c4n3)ncc21 (stereo partly drawn) [Example 5, Methyl ((1R,3R)-3-(3-(methyl-d3)-6-((4-(methylsulfinyl)-8-(trifluoromethyl)quinolin-2-yl)amino)-2-oxo-2,3-dihydro-1H-imidazo[4,5-c]pyridin-1-yl)cyclopentyl)carbamate] | > 1000 nM | ≤ 10 nM | ≤ 10 nM | > 1000 nM |
| [2H]C([2H])([2H])n1c(=O)n([C@@H]2CC[C@@H](NC(=O)OC)C2)c2cc(Nc3cc(S(C)(=O)=O)c4cccc(C(F)(F)F)c4n3)ncc21 [Example 6, Methyl ((1R,3R)-3-(3-(methyl-d3)-6-((4-(methylsulfonyl)-8-(trifluoromethyl)quinolin-2-yl)amino)-2-oxo-2,3-dihydro-1H-imidazo[4,5-c]pyridin-1-yl)cyclopentyl)carbamate] | > 1000 nM | ≤ 10 nM | ≤ 10 nM | > 1000 nM |
| [2H]C([2H])([2H])n1c(=O)n([C@@H]2CC[C@@H](NC(=O)OC)C2)c2cc(Nc3cc(S(C)(=N)=O)c4cccc(C(F)(F)F)c4n3)ncc21 (stereo partly drawn) [Example 7, methyl ((1R,3R)-3-(3-(methyl-d3)-6-((4-(S-methylsulfonimidoyl)-8-(trifluoromethyl)quinolin-2-yl)amino)-2-oxo-2,3-dihydro-1H-imidazo[4,5-c]pyridin-1-yl)cyclopentyl)carbamate] | > 1000 nM | ≤ 10 nM | 10 to 100 nM | > 1000 nM |
| [2H]C([2H])([2H])n1c(=O)n([C@@H]2CC[C@@H](NC(=O)OCc3ccccc3)C2)c2cc(Nc3ccc4cccc(C(F)(F)F)c4n3)ncc21 [Example 8, Benzyl ((1R,3R)-3-(3-(methyl-d3)-2-oxo-6-((8-(trifluoromethyl)quinolin-2-yl)amino)-2,3-dihydro-1H-imidazo[4,5-c]pyridin-1-yl)cyclopentyl)carbamate] | > 1000 nM | 10 to 100 nM | 10 to 100 nM | > 1000 nM |
| [2H]C([2H])([2H])n1c(=O)n([C@@H]2CC[C@@H](NC(=O)OC)C2)c2cc(Nc3cc(C(C)(C)O)c4cccc(C(F)(F)F)c4n3)ncc21 [Example 9, Methyl ((1R,3R)-3-(6-((4-(2-hydroxypropan-2-yl)-8-(trifluoromethyl)quinolin-2-yl)amino)-3-(methyl-d3)-2-oxo-2,3-dihydro-1H-imidazo[4,5-c]pyridin-1-yl)cyclopentyl)carbamate] | > 1000 nM | ≤ 10 nM | ≤ 10 nM | > 1000 nM |
| [2H]C([2H])([2H])n1c(=O)n([C@@H]2CC[C@@H](NC(=O)OC)C2)c2cc(Nc3cc(C(=O)N(C)C(C)C)c4cccc(C(F)(F)F)c4n3)ncc21 [Example 10, Methyl ((1R,3R)-3-(6-((4-(isopropyl(methyl)carbamoyl)-8-(trifluoromethyl)quinolin-2-yl)amino)-3-(methyl-d3)-2-oxo-2,3-dihydro-1H-imidazo[4,5-c]pyridin-1-yl)cyclopentyl)carbamate] | > 1000 nM | ≤ 10 nM | ≤ 10 nM | > 1000 nM |
| [2H]C([2H])([2H])n1c(=O)n([C@H]2C[C@H](NC(=O)OC)C2)c2cc(Nc3cc(C(C)(C)O)c4cccc(C(F)(F)F)c4n3)ncc21 [Example 15, Methyl ((trans)-3-(6-((4-(2-hydroxypropan-2-yl)-8-(trifluoromethyl)quinolin-2-yl)amino)-3-(methyl-d3)-2-oxo-2,3-dihydro-1H-imidazo[4,5-c]pyridin-1-yl)cyclobutyl)carbamate] | 100 to 500 nM | ≤ 10 nM | ≤ 10 nM | 100 to 500 nM |
| [2H]C([2H])([2H])n1c(=O)n([C@H]2C[C@H](NC(=O)OC3CC3)C2)c2cc(Nc3cc(C(C)(C)O)c4cccc(C(F)(F)F)c4n3)ncc21 [Example 16, Cyclopropyl ((trans)-3-(6-((4-(2-hydroxypropan-2-yl)-8-(trifluoromethyl)quinolin-2-yl)amino)-3-(methyl-d3)-2-oxo-2,3-dihydro-1H-imidazo[4,5-c]pyridin-1-yl)cyclobutyl)carbamate] | 100 to 500 nM | ≤ 10 nM | ≤ 10 nM | 100 to 500 nM |
